Measurements as given in the supplement of paper PMC10331698.
± gives the standard deviation of the averaged measurements.

Tests used:
Assay in all cases: level (log10 ratio to DMSO vehicle control); higher = higher biomarker level / cell amount than vehicle control
Details in all cases: in DMSO
[1] = compound: COC(=O)CCC(F)(F)C(F)(F)C(F)(F)C(F)(F)F [Methyl 2H,2H,3H,3H-perfluoroheptanoate]
Experimental: (§1)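 BioMAP Diversity Plus panel of 12 human primary cell co-culture systems (3C, 4H, LPS, SAg, BT, BF4T, BE3C, CASM3C, HDF3CGF, KF3CT, MyoF, Mphg). Compounds were added 1 h before stimulation and left for 24 h (MyoF 48 h; BT 72 h for soluble read-outs or 6 d for IgG). Biomarkers were read by ELISA, cytotoxicity by SRB, PBMC viability and proliferation by Alamar Blue. Each well value was divided by the mean of 8 DMSO control wells on the same plate and log10 transformed; duplicate blinded samples were tested at 4 concentrations.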

[2] = compound: C=C(C)C(=O)OCCC(F)(F)C(F)(F)C(F)(F)C(F)(F)C(F)(C(F)(F)F)C(F)(F)F [(Perfluoro-5-methylhexyl)ethyl 2-methylprop-2-enoate]
Experimental: as §1

Perfluoropropanoic acid = compound: O=C(O)C(F)(F)C(F)(F)F [Perfluoropropanoic acid]
Experimental: as §1

[3] = compound: C=CC(=O)OCC(F)(F)C(F)(F)C(F)(F)C(F)(F)C(F)(F)C(F)(F)C(F)(F)F [1H,1H-Perfluorooctyl acrylate]
Experimental: as §1

[4] = compound: FC(F)(F)C(F)(F)C(F)(F)C(F)(F)C(F)(F)C(F)(F)C(F)(F)C(F)(F)CCS [2-(Perfluorooctyl)ethanthiol]
Experimental: as §1

[5] = compound: OCC(F)(F)OC(F)(F)C(F)(F)OC(F)(F)CO [1H,1H,8H,8H-Perfluoro-3,6-dioxaoctane-1,8-diol]
Experimental: as §1

[6] = compound: C=CC(F)(F)C(F)(F)C(F)(F)C(F)(F)C(F)(F)C(F)(F)C(F)(F)C(F)(F)C=C [1,8-Divinylperfluorooctane]
Experimental: as §1

Test System | level (log10) ([1]; 6700 nM) | level (log10) ([1]; 20000 nM) | level (log10) ([1]; 60000 nM) | level (log10) ([2]; 6700 nM) | level (log10) ([2]; 20000 nM) | level (log10) (Perfluoropropanoic acid; 6700 nM) | level (log10) (Perfluoropropanoic acid; 20000 nM) | level (log10) (Perfluoropropanoic acid; 60000 nM) | level (log10) ([3]; 6700 nM) | level (log10) ([3]; 20000 nM) | level (log10) ([3]; 60000 nM) | level (log10) ([4]; 6700 nM) | level (log10) ([4]; 20000 nM) | level (log10) ([5]; 6700 nM) | level (log10) ([5]; 20000 nM) | level (log10) ([5]; 60000 nM) | level (log10) ([6]; 6700 nM) | level (log10) ([6]; 20000 nM)
BF4T:CD106/VCAM-1 | -0.001 ± 0.02 | 0.002 ± 0.0028 | 0.0015 ± 0.0064 | -0.012 ± 0.02 | 0.0325 ± 0.036 | -0.021 ± 0.065 | 0.003 ± 0.072 | 0.026 ± 0.095 | -0.0105 ± 0.0021 | -0.04 ± 0.0014 | -0.049 ± 0.011 | -0.003 ± 0.051 | -0.0605 ± 0.0078 | -0.0125 ± 0.015 | -0.006 ± 0.027 | 0.0245 ± 0.053 | 0.0015 ± 0.016 | 0.0065 ± 0.018
BE3C:EGFR | -0.029 ± 0.021 | 0.008 ± 0.0042 | -0.022 ± 0.0071 | -0.0065 ± 0.011 | 0.009 ± 0.014 | -0.0175 ± 0.036 | 0.0065 ± 0.012 | 0.035 ± 0.035 | 0.016 ± 0.0071 | 0.01 ± 0.025 | 0.02 ± 0.011 | 0.025 ± 0.013 | 0.0035 ± 0.03 | 0.0085 ± 0.012 | -0.0025 ± 0.021 | -0.0095 ± 0.0064 | -0.0015 ± 0.022 | -0.006
LPS:CD69 | -0.019 ± 0.047 | 0.0115 ± 0.042 | -0.01 ± 0.052 | -0.019 ± 0.069 | -0.0145 ± 0.08 | -0.001 ± 0.023 | 0.0035 ± 0.012 | 0.005 ± 0.027 | 0.0025 ± 0.0021 | -0.0095 ± 0.0064 | -0.0305 ± 0.005 | 0.019 ± 0.024 | 0.0125 ± 0.043 | 0.0335 ± 0.083 | 0.033 ± 0.042 | 0.0025 ± 0.029 | -0.0135 ± 0.011 | -0.008 ± 0.014
LPS:CD141/Thrombomodulin | -0.0375 ± 0.037 | -0.0325 ± 0.0092 | -0.0255 ± 0.0078 | 0.0055 ± 0.0092 | -0.0345 ± 0.021 | -0.003 ± 0.027 | -0.007 ± 0.0057 | 0.013 ± 0.0057 | -0.0365 ± 0.0021 | -0.052 ± 0.013 | -0.052 ± 0.011 | 0.0055 ± 0.0064 | -0.0385 ± 0.028 | 0.004 ± 0.021 | 0.021 ± 0.018 | -0.002 ± 0.014 | -0.0025 ± 0.00071 | 0.011 ± 0.021
SAg:CD38 | -0.018 ± 0.017 | -0.0015 ± 0.018 | -0.009 ± 0.0028 | -0.011 ± 0.016 | -0.0055 ± 0.015 | 0.0015 ± 0.043 | 0.023 ± 0.0085 | 0.029 ± 0.055 | -0.016 ± 0.018 | -0.009 ± 0.016 | -0.02 ± 0.014 | -0.036 ± 0.057 | -0.0245 ± 0.042 | -0.006 ± 0.02 | -0.0105 ± 0.013 | -0.0015 ± 0.0021 | -0.009 ± 0.016 | -0.0055 ± 0.0092
SAg:CCL2/MCP-1 | 0 ± 0.014 | -0.027 ± 0.0014 | -0.0015 ± 0.0035 | -0.014 ± 0.018 | 0.0065 ± 0.033 | -0.0055 ± 0.036 | 0.012 ± 0.016 | 0.0145 ± 0.042 | -0.014 ± 0.0071 | -0.025 ± 0.0071 | 0.001 ± 0.024 | -0.0085 ± 0.019 | 0.017 ± 0.0028 | 0.0085 ± 0.005 | -0.0105 ± 0.012 | 0.011 ± 0.037 | -0.001 ± 0.0028 | 0.004 ± 0.0014
SAg:SRB | 0.008 ± 0.027 | 0.0005 ± 0.0064 | -0.0085 ± 0.0092 | -0.001 ± 0.0042 | -0.0105 ± 0.0078 | -0.01 ± 0.0028 | -0.014 ± 0.0042 | -0.0035 ± 0.00071 | -0.0005 ± 0.0035 | -0.002 ± 0.0028 | 0.0075 ± 0.0021 | 0.002 ± 0.0014 | -0.004 ± 0.0014 | -0.0115 ± 0.012 | -0.0195 ± 0.0092 | -0.0195 ± 0.016 | -0.0005 ± 0.0021 | 0.0135 ± 0.0021
BE3C:CXCL8/IL-8 | 0.032 ± 0.044 | 0.002 ± 0.057 | 0.0295 ± 0.053 | -0.0065 ± 0.0092 | -0.008 ± 0.024 | -0.0355 ± 0.083 | 0.001 ± 0.083 | 0.0605 ± 0.13 | 0.0375 ± 0.012 | 0.066 | 0.071 ± 0.042 | 0.04 ± 0.073 | 0.0135 ± 0.093 | 0.0075 ± 0.005 | 0.001 ± 0.041 | -0.012 ± 0.045 | 0.0025 ± 0.021 | 0.01 ± 0.02
LPS:sTNF-alpha | 0.0245 ± 0.005 | -0.007 ± 0.011 | -0.025 ± 0.033 | 0.0265 ± 0.04 | 0.0345 ± 0.063 | -0.006 ± 0.013 | 0.0065 ± 0.00071 | 0.0175 ± 0.0021 | 0.0115 ± 0.00071 | 0.0285 ± 0.011 | 0.021 ± 0.013 | 0.052 ± 0.013 | 0.098 ± 0.0071 | -0.0235 ± 0.025 | -0.0435 ± 0.032 | -0.0335 ± 0.022 | 0.055 ± 0.016 | 0.035 ± 0.035
SAg:CXCL8/IL-8 | -0.007 ± 0.05 | -0.0085 ± 0.026 | 0.0165 ± 0.033 | 0.0115 ± 0.012 | 0.0405 ± 0.079 | -0.022 ± 0.0057 | 0.0065 ± 0.019 | 0.0415 ± 0.0078 | -0.0135 ± 0.053 | 0.001 ± 0.052 | 0.003 ± 0.024 | -0.0215 ± 0.032 | 0.027 ± 0.082 | 0.0115 ± 0.022 | -0.005 | 0.014 ± 0.044 | -0.0315 ± 0.013 | 0.006 ± 0.05
BF4T:CXCL8/IL-8 | 0.018 ± 0.018 | 0.0065 ± 0.0078 | 0.013 ± 0.037 | 0.067 ± 0.037 | 0.035 ± 0.027 | 0.043 ± 0.037 | 0.033 ± 0.035 | 0.046 ± 0.052 | 0.0275 ± 0.0092 | 0.01 ± 0.0057 | 0.0465 ± 0.0092 | 0.0625 ± 0.037 | 0.0505 ± 0.05 | 0.0225 ± 0.029 | -0.0005 ± 0.029 | 0 ± 0.023 | 0.009 ± 0.03 | 0.0155 ± 0.013
LPS:CD142/Tissue Factor | 0.0015 ± 0.067 | 0.0175 ± 0.054 | -0.019 ± 0.0085 | 0.032 ± 0.014 | 0.006 ± 0.014 | 0.001 ± 0.0028 | 0.0055 ± 0.028 | 0.0235 ± 0.0078 | 0.0425 ± 0.018 | 0.051 ± 0.014 | 0.0525 ± 0.016 | 0.0455 ± 0.081 | 0.097 ± 0.065 | -0.006 ± 0.014 | -0.0155 ± 0.021 | -0.0135 ± 0.0035 | -0.035 ± 0.035 | -0.043 ± 0.057
BF4T:IL-1alpha | -0.0085 ± 0.00071 | -0.0185 ± 0.018 | 0 ± 0.021 | -0.0155 ± 0.021 | -0.014 ± 0.03 | -0.0325 ± 0.005 | 0.002 | 0.013 ± 0.03 | -0.0075 ± 0.00071 | 0.0045 ± 0.0021 | -0.0125 ± 0.013 | -0.036 ± 0.018 | -0.023 ± 0.017 | -0.004 ± 0.0042 | -0.01 ± 0.0042 | 0.012 ± 0.0028 | -0.0175 ± 0.0021 | 0.01 ± 0.025
BE3C:IL-1alpha | 0.014 ± 0.023 | -0.002 ± 0.013 | 0.025 ± 0.047 | -0.017 ± 0.0057 | -0.009 ± 0.0014 | -0.019 ± 0.016 | -0.021 ± 0.04 | -0.0115 ± 0.023 | -0.006 ± 0.018 | -0.0095 ± 0.0035 | -0.0105 ± 0.019 | -0.038 ± 0.0014 | -0.017 ± 0.016 | 0.0105 ± 0.032 | 0.0055 ± 0.016 | 0.003 ± 0.0014 | 0.001 ± 0.02 | 0.026 ± 0.0057
BF4T:MMP-3 | -0.0135 ± 0.015 | -0.021 ± 0.03 | -0.0185 ± 0.0035 | -0.0975 ± 0.022 | -0.057 ± 0.041 | -0.018 ± 0.0028 | 0.0015 ± 0.026 | 0.0085 ± 0.028 | -0.004 ± 0.0014 | 0.0205 ± 0.019 | 0.036 ± 0.0071 | -0.0515 ± 0.0035 | -0.0285 ± 0.015 | -0.01 ± 0.045 | -0.0285 ± 0.057 | -0.0095 ± 0.037 | 0.021 ± 0.016 | 0.0005 ± 0.005
LPS:M-CSF | -0.0005 ± 0.0035 | 0.002 ± 0.011 | 0.0105 ± 0.043 | 0.022 ± 0.02 | 0.006 ± 0.0042 | 0.006 ± 0.0028 | -0.027 ± 0.0014 | -0.0005 ± 0.037 | -0.001 ± 0.017 | 0.0045 ± 0.023 | 0.009 ± 0.0085 | 0.0095 ± 0.0035 | -0.0035 ± 0.0092 | -0.015 ± 0.0042 | -0.018 ± 0.031 | 0.007 ± 0.067 | -0.029 | -0.007 ± 0.031
